Values of other authors, collected in US20210137911A1, “NOVEL CHRONOTHERAPY BASED ON CIRCADIAN RHYTHMS” (THE TRUSTEES OF THE UNIVERSITY OF PENNSYLVANIA, priority 2014, published 2021).
Read-outs that look alike come from different tables or passages of the source. Residues, ends and D or L forms follow the SMILES beside them.

Settings: cited from earlier work
[1] = half-life of top selling therapeutic compounds (Table 1)

SMILES	½ Life [1]	other results
CCCCC(C)(O)C/C=C/[C@H]1[C@H](O)CC(=O)[C@@H]1CCCCCCC(=O)OC (mixture of isomers) [Misoprostol]		½ Life (half-life of therapeutic compound as listed in Table 1): 0.33 h
N[C@@H]1C[C@H]1c1ccccc1 (racemic) [Tranylcypromine]		½ Life (in vivo): 1.5 h
C[C@]12CC[C@H](O)CC1=CC[C@@H]1[C@@H]2CC[C@]2(C)C(c3cccnc3)=CC[C@@H]12 [Abiraterone]	5 h	
C[C@H]1O[C@H](O[C@H]2[C@H](O)[C@@H](O)[C@@H](O[C@H]3[C@H](O)[C@@H](O)C(O)O[C@@H]3CO)O[C@@H]2CO)[C@H](O)[C@@H](O)[C@@H]1N[C@H]1C=C(CO)[C@@H](O)[C@H](O)[C@H]1O (some centres unmarked) [Acarbose]	2 h	
CCCC(=O)Nc1ccc(OCC(O)CNC(C)C)c(C(C)=O)c1 (centres unmarked) [Acebutolol]	3 h	
CC(=O)c1ccc2c(c1)N(CCCN(C)C)c1ccccc1S2 [Acepromazine]	3 h	
CC(=O)Nc1ccc(O)cc1 [Acetaminophen]	1 h	
CC(=O)Nc1nnc(S(N)(=O)=O)s1 [Acetazolamide]	3 h	
CC(=O)c1ccc(S(=O)(=O)NC(=O)NC2CCCCC2)cc1 [Acetohexamide]	1.3 h	
CC(=O)N[C@@H](CS)C(=O)O [Acetylcysteine]	5.6 h	
O=C(O[C@H]1C[N+]2(CCCOc3ccccc3)CCC1CC2)C(O)(c1cccs1)c1cccs1 [Aclidinium]	2.4 h	
CN(C)Cc1nnc2n1-c1ccc(Cl)cc1C(c1ccccc1)=NC2 [Adinazolam]		½ Life (in vivo): 3 h
COc1ccc2cccc(CCNC(C)=O)c2c1 [Agomelatine]	2 h	
Oc1ncnc2[nH]ncc12 [Allopurinol]	1 h	
CN(C)CCc1c[nH]c2ccc(CS(=O)(=O)N3CCCC3)cc12 [Almotriptan]	3 h	
C=CCc1ccccc1OCC(O)CNC(C)C (centres unmarked) [Alprenolol]	2 h	
NCCCNCCSP(=O)(O)O [Amifostine]	0.133 h	
NCCCCCC(=O)O [Aminocaproic Acid]	2 h	
NCC(=O)CCC(=O)O [Aminolevulinic acid]	0.7 h	
CC(C)c1ccc2oc3nc(N)c(C(=O)O)cc3c(=O)c2c1 [Amlexanox]	3.5 h	
Nc1cc(-c2ccncc2)c[nH]c1=O [Amrinone]	5 h	
O=C1CN2Cc3c(ccc(Cl)c3Cl)N=C2N1 [Anagrelide]	0.5 h	
CN1CCc2cccc3c2[C@H]1Cc1ccc(O)c(O)c1-3 [Apomorphine]	0.66 h	
CC(C)C(=O)O[C@@H](OC(=O)NC[C@H](CC(=O)O)c1ccc(Cl)cc1)C(C)C [Arbaclofen Placarbil]		½ Life (in vivo): 0.1 h
Oc1ccc(CCCCNC[C@H](O)c2ccc(O)c(O)c2)cc1 [Arbutamine]		½ Life (in vivo): 0.133 h
COC(=O)[C@H](Cc1ccccc1)NC(=O)[C@@H](N)CC(=O)O [Aspartame] (H-Asp-Phe-OMe)	4.3 h	
CNCC[C@@H](Oc1ccccc1C)c1ccccc1 [Atomoxetine]	5 h	

SMILES	½ Life [1]	other results
COc1ccc(CC2c3cc(OC)c(OC)cc3CC[N+]2(C)CCC(=O)OCCCCCOC(=O)CC[N+]2(C)CCc3cc(OC)c(OC)cc3C2Cc2ccc(OC)c(OC)c2)cc1OC (centres unmarked) [Atracurium]	0.33 h	
COc1ccc(CN=c2[nH]c(N3CCC[C@H]3CO)ncc2C(=O)NCc2ncccn2)cc1Cl [Avanafil]	5.36 h	
CNC(=O)c1ccccc1Sc1ccc2c(/C=C/c3ccccn3)n[nH]c2c1 [Axitinib]	2.5 h	
NCC(CC(=O)O)c1ccc(Cl)cc1 (centres unmarked) [Baclofen]	2.5 h	
C[C@H]1C[C@H]2[C@@H]3CCC4=CC(=O)C=C[C@]4(C)[C@@]3(Cl)[C@@H](O)C[C@]2(C)[C@@]1(O)C(=O)CO [Beclomethasone]		½ Life (in vivo): 2.8 h
CCCCNc1ccc(C(=O)OCCOCCOCCOCCOCCOCCOCCOCCOCCOC)cc1 [Benzonatate]	3 h	
CCN(CC)C(=O)C1CN2CCc3cc(OC)c(OC)cc3C2CC1OC(C)=O (centres unmarked) [Benzquinamide]	1 h	
CNCCc1ccccn1 [Betahistine]	3 h	
C[C@H]1C[C@H]2[C@@H]3CCC4=CC(=O)C=C[C@]4(C)[C@@]3(F)[C@@H](O)C[C@]2(C)[C@@]1(O)C(=O)CO [Betamethasone]	5.6 h	
CC(C)(Oc1ccc(CCNC(=O)c2ccc(Cl)cc2)cc1)C(=O)O [Bezafibrate, reference compound]	1 h	
CCNC(=O)CCC/C=C\C[C@@H]1[C@@H](/C=C/[C@@H](O)CCc2ccccc2)[C@H](O)C[C@@H]1O [Bimatoprost]	0.75 h	
Nc1nc(N/N=C/C2CCCCC2)nc2c1ncn2[C@@H]1O[C@H](CO)[C@@H](O)[C@H]1O [Binodenoson]	0.166 h	
COc1ccccc1Oc1c(NS(=O)(=O)c2ccc(C(C)(C)C)cc2)nc(-c2ncccn2)nc1OCCO [Bosentan]	5 h	
Brc1c(NC2=NCCN2)ccc2nccnc12 [Brimonidine]	2 h	
CC(C)C[C@H]1C(=O)N2CCC[C@H]2[C@]2(O)O[C@](NC(=O)[C@@H]3C=C4c5cccc6[nH]c(Br)c(c56)C[C@H]4N(C)C3)(C(C)C)C(=O)N12 [Bromocriptine]	2 h	
CCCC1O[C@@H]2C[C@H]3[C@@H]4CCC5=CC(=O)C=C[C@]5(C)[C@H]4[C@@H](O)C[C@]3(C)[C@]2(C(=O)CO)O1 (some centres unmarked) [Budesonide]	2 h	
CCCCNc1cc(C(=O)O)cc(S(N)(=O)=O)c1Oc1ccccc1 [Bumetanide]	1 h	
CCCCN1CCCCC1C(=O)Nc1c(C)cccc1C (centres unmarked) [Bupivacaine]	2.7 h	
Cc1ccc(Cl)c(OCC(O)CNC(C)(C)C)c1 (centres unmarked) [Bupranolol]	2 h	
CO[C@H]1C(=O)[C@]2(C)[C@@H](OC)C[C@H]3OC[C@@]3(OC(C)=O)[C@H]2[C@H](OC(=O)c2ccccc2)[C@]2(O)C[C@H](OC(=O)[C@H](O)[C@@H](NC(=O)OC(C)(C)C)c3ccccc3)C(C)=C1C2(C)C [Cabazitaxel]	4 h	
Cn1c(=O)c2c(ncn2C)n(C)c1=O [Caffeine]		½ Life (in vivo): 3 h
C=C1/C(=C\C=C2/CCC[C@]3(C)[C@@H]([C@H](C)CCCC(C)(C)O)CC[C@@H]23)C[C@@H](O)C[C@@H]1O [Calcitriol]	5 h	
CCCCCOC(=O)Nc1nc(=O)n([C@@H]2O[C@H](C)[C@@H](O)[C@H]2O)cc1F [Capecitabine]	0.75 h	
C[C@@](Cc1ccc(O)c(O)c1)(NN)C(=O)O [Carbidopa]	1 h	
O=NN(CCCl)C(=O)NCCCl [Carmustine]		½ Life (in vivo): 0.25 h
COCc1c(C(C)C)nc(C(C)C)c(/C=C/[C@@H](O)C[C@@H](O)CC(=O)O)c1-c1ccc(F)cc1 [Cerivastatin, reference compound]	2 h	half-life (see Table 1): less than three
CC1OC2(CS1)CN1CCC2CC1 (centres unmarked) [Cevimeline]	5 h	

SMILES	½ Life [1]	other results
Cc1cc(C2CCCCC2)n(O)c(=O)c1 [Ciclopirox]	1.7 h	
CCOc1cc(N)c([N+](=O)[O-])cc1C(=O)NC1CCN(CC2CC=CCC2)CC1 (centres unmarked) [Cinitapride]	3 h	
COc1ccc(C[C@@H]2c3cc(OC)c(OC)cc3CC[N@+]2(C)CCC(=O)OCCCCCOC(=O)CC[N@@+]2(C)CCc3cc(OC)c(OC)cc3[C@H]2Cc2ccc(OC)c(OC)c2)cc1OC [Cisatracurium Besylate]	0.366 h	
Nc1nc(Cl)nc2c1ncn2[C@H]1C[C@H](O)[C@@H](CO)O1 [Cladribine]	5.4 h	
Nc1nc(Cl)nc2c1ncn2[C@@H]1O[C@H](CO)[C@@H](O)[C@@H]1F [Clofarabine]	5.2 h	
O=C(O)C1N=C(c2ccccc2)c2cc(Cl)ccc2NC1=O (centres unmarked) [Clorazepate]	2 h	
CCc1cc2c(s1)N(C)C(=O)CN=C2c1ccccc1Cl [Clotiazepam]	4 h	
Clc1ccccc1C(c1ccccc1)(c1ccccc1)n1ccnc1 [Clotrimazole]	2 h	
COC(=O)[C@H]1[C@@H](OC(=O)c2ccccc2)C[C@@H]2CC[C@H]1N2C [Cocaine]	1 h	
COc1ccc2c3c1O[C@H]1[C@@H](O)C=C[C@H]4[C@@H](C2)N(C)CC[C@@]341 [Codeine]		½ Life (in vivo): 3 h
COc1cc2c(c(OC)c1OC)-c1ccc(OC)c(=O)cc1[C@@H](NC(C)=O)CC2 [Colchicine]	1 h	
CN(CC(=O)O)C(=N)N [Creatine]	3 h	
Nc1ccn([C@@H]2O[C@H](CO)[C@@H](O)[C@@H]2O)c(=O)n1 [Cytarabine]		½ Life (in vivo): 0.166 h
CN(C)/N=N/c1[nH]cnc1C(N)=O [Dacarbazine]	5 h	
Nc1ccncc1 [Dalfampridine]		½ Life (in vivo): 3.5 h
O=C1CN(/N=C/c2ccc(-c3ccc([N+](=O)[O-])cc3)o2)C(O)=N1 [Dantrolene]	4 h	
CN(C)[C@@H](CCOc1cccc2ccccc12)c1ccccc1 [Dapoxetine]	1 h	
Cc1nc(Nc2ncc(C(=O)Nc3c(C)cccc3Cl)s2)cc(N2CCN(CCO)CC2)n1 [Dasatinib]	3 h	
Nc1ncn([C@H]2C[C@H](O)[C@@H](CO)O2)c(=O)n1 [Decitabine]	0.51 h	
NC(=O)CC[C@@H]1NC(=O)[C@H](Cc2ccccc2)NC(=O)[C@H](Cc2ccc(O)cc2)NC(=O)CCSSC[C@@H](C(=O)N2CCC[C@H]2C(=O)N[C@H](CCCN=C(N)N)C(=O)NCC(N)=O)NC(=O)[C@H](CC(N)=O)NC1=O [Desmopressin]		½ Life (in vivo): 1 h
Cc1cccc([C@H](C)c2cnc[nH]2)c1C [Dexmedetomidine]	2 h	
COC(=O)[C@H](c1ccccc1)[C@H]1CCCCN1 [Dexmethylphenidate]		½ Life (in vivo): 2 h
C[C@@H](CN1CC(=O)NC(=O)C1)N1CC(=O)NC(=O)C1 [Dexrazoxane]	2.5 h	
COc1ccc2c(c1)[C@]13CCCC[C@@H]1[C@H](C2)N(C)CC3 [Dextromethorphan]	3 h	
C[C@@]12CCCCC[C@@H](Cc3ccc(O)cc31)[C@@H]2N [Dezocine]		½ Life (in vivo): 2.2 h
